The source of these data is US11696914B1 (priority 2019, dated 2023).

Read-outs that look alike come from different tables or passages of the source.

The conditions of series [1]: mouse, microsomes.
The conditions of series [2]: human, microsomes.
For series [3] the following is noted: mouse, microsomes, 1 h, pH 7.4.
For series [4] the following is noted: human, microsomes, 1 h.
For series [5] the following is noted: microsomes.
The conditions of series [6]: guinea pig, pH 7.4.
For series [7] the following is noted: guinea pig, microsomes.
A short description of series [8]: in vitro. The following applies: guinea pig, microsomes.
Series [9] can be described thus: in vitro. The following applies: mouse, microsomes.
A short description of series [10]: in vitro. The following applies: human, microsomes.
The nature of series [11]: in vitro. The settings on record: microsomes.
The test system of another series is Sudan virus. The settings on record: guinea pig, in vivo; cited from earlier work.
Another series relates to SARS-CoV-2. The series can be described thus: microbe, parasite or virus in culture. In kind it is cell-based. The settings on record: Severe acute respiratory syndrome coronavirus 2, A549-ACE2, read-out: IC50 against SARS-CoV-2.
In the next series the test system is EBOV. The following applies: human, in vivo; cited from earlier work.

As to `C[C@H]1[C@H](OC(=O)CCC(=O)O)O[C@@H]2O[C@@]3(C)CC[C@H]4[C@H](C)CC[C@@H]1[C@@]24OO3` [Artesunate], the “effect on toxicity of pyronaridine in the checkboard assay” value in the series with HeLa cells is reported as “ameliorates the toxicity of pyronaridine”.

As to `CCN(CC)CCCC(C)Nc1ccnc2cc(Cl)ccc12` (stereo not shown) [Chloroquine], the Clint stood at 29.3 in series [1], 6.9 in [2], 13.0 in series [5] and 10.5 in [7]. The “Dextromethorphan: compound, t1/2 normalized to dextromethorphan control” value in [1] is 2.7; in series [2], 10.3; in series [5], 19.1; in series [7], 42.1. For the same molecule, the t1/2 in series [1] was found to be 47.3 min; in series [2], 201.4 min; in series [5] (monkey), 106.8 min; in series [7], 132.6 min. In [3], the “Relative Peak Area/Abundance MLM” value was determined as 42.5%. In addition, the “Relative Peak Area/Abundance HLM” value in [4] (pH 7.4) amounted to 56.7%. Moreover, the “Relative Peak Area/Abundance GPLM” value in [6] amounted to 43.3%.

On to `COc1ccc2c(c1)[C@]13CCCC[C@@H]1[C@H](C2)N(C)CC3` [Dextromethorphan], for which the half-life (in general, the time in which the quantity being followed falls by half) in “in vitro [8]” (Dextromethorphan t1/2) is 3.2 min; in “in vitro [8]” (t1/2 of CYP probe controls), 2.9 min; in “in vitro [9]” (Dextromethorphan t1/2), 16.2 min; in the series “in vitro [9]” (t1/2 of CYP probe controls), 13.2 min; in “in vitro [10]” (Dextromethorphan t1/2), 19.7 min; in the series “in vitro [10]” (t1/2 of CYP probe controls), 14.8 min. In addition, the half-life in the series “in vitro [11]” (monkey) is 6.69 min; in “in vitro [11]” (non-human primate), 5.7 min.

For the molecule `O=C(O)Cc1ccccc1Nc1c(Cl)cccc1Cl` [Diclofenac], the “t1/2 of CYP probe controls” value in series [1] came to 39.6 min. This molecule also had a half-life in the series “in vitro [11]” (monkey) of 43.1 min.

As for `NC(=O)c1nc(F)c[nH]c1=O` [Favipiravir], the “survival rates in Sudan virus-infected guinea pigs” value in the series with Sudan virus is recorded as 83-100%.

Take `COc1ccc2nc3cc(Cl)ccc3c(N)c2n1` [M11]: in [4], the “Relative Peak Area/Abundance HLM” value was found to be 0.2%.

As for `Cc1ncc2n1-c1ccc(Cl)cc1C(c1ccccc1F)=NC2` [Midazolam], the half-life came out at 3.75 min in “in vitro [8]” (t1/2 of CYP probe controls), 1.68 min in the series “in vitro [9]” (t1/2 of CYP probe controls), 2.35 min in the series “in vitro [10]” (t1/2 of CYP probe controls) and 4.3 min in “in vitro [11]” (monkey).

Turning to `COc1ccc2[nH]c([S+]([O-])Cc3ncc(C)c(OC)c3C)nc2c1` (stereo not shown) [Omeprazole], the half-life in “in vitro [8]” (t1/2 of CYP probe controls) amounted to 34 min; in the series “in vitro [10]” (t1/2 of CYP probe controls), 23.5 min; in “in vitro [11]” (monkey), 25.5 min.

For the molecule `CCC(CC)COC(=O)[C@H](C)N[P@](=O)(OC[C@H]1O[C@@](C#N)(c2ccc3c(N)ncnn23)[C@H](O)[C@@H]1O)Oc1ccccc1` [Remdesivir], the IC50 – broadly, the point on the concentration scale where inhibition reaches its midpoint – in the series on SARS-CoV-2 was about 147 nM.

B1: mAb114 (antibody, chains of the INN, looked up, V domains shown)
VH: EVQLVESGGGLIQPGGSLRLSCAASGFALRMYDMHWVRQTIDKRLEWVSAVGPSGDTTYADSVKGRFAVSRENAKNSLSLQMNSLTAGDTAIYYCVRSDRGVAGLFDSWGQGILVTVSS
VL: DIQMTQSPSSLSASVGDRITITCRASQAFDNYVAWYQQRPGKVPKLLISAASALHAGVPSRFSGSGSGTHFTLTISSLQPEDVATYYCQNYNSAPLTFGGGTKVEIK
On to B1, for which the “overall survival rate in EBOV patients” value with EBOV is given as 66%.
